Reference: paper PMC3923730 (Journal of Translational Medicine, 2014)

Tests used:
[1] = test system: myocardial infarction model in rats; parameters: method as in PMID 20215409; details: rat myocardial infarction model, 2.5 mg/kg formulated in HPBCD; cited from earlier work
[2] = Solubility in formulation vehicle; assay type: physicochemical; details: in Intralipid® 30 (IL30), concentrations up to
Domestic Yorkshire pigs = experiment: Porcine liposome-induced cardio-pulmonary distress model; assay type: in vivo; details: pig, 10 mg/kg i.v. liposomal formulation
Description: Domestic Yorkshire pigs (12-14 weeks, ~25 kg) received multiple i.v. injections of the test material via the external jugular vein at 10 mL/min as follows: saline as a negative control, the liposomal formulation of TRO40303 at 10 mg/kg and a bolus of Doxil® at 0.01 mg/kg as a positive control. Doxil® is a marketed liposomal formulation of doxorubicin administered intravenously that can provoke acute infusion-related reactions.
Hemodynamic changes were monitored continuously for at least 30 min after the end of each test material infusion. Systemic arterial blood pressure (SAP) and pulmonary arterial blood pressure (PAP) changes were evaluated.

isolated rat heart = experiment: Free radical (ESR) and lipid peroxidation (MDA-TBA) measurements in isolated rat heart; details: 1 μM
Description: To evaluate the effect of 1 μM TRO40303 on ischemia-reperfusion-induced ascorbate release and tissue depletion, effluents from control and treated hearts undergoing the perfusion protocol described above (n = 6/group) were collected for 15 s, 1 min following onset of reflow, and hearts were frozen in liquid nitrogen at the end of the reperfusion period. Ascorbate content in effluents and tissue homogenates was then assessed by quantifying the ascorbyl free radical (AFR)-dimethyl sulfoxide (DMSO) electron spin resonance (ESR) doublet as previously described, DMSO being used to stabilize the ascorbate free radical.
To investigate whether TRO40303 could interfere with ischemia-reperfusion-triggered ROS production, hearts (n = 6) undergoing the perfusion protocol described above received the spin trap nitrone DMPO (25 mM) during the first 5 min of reperfusion. A 15-s collection of the effluents was performed pre-ischemically on three additional hearts from both groups, and 3 min after onset of reflow for the 6 ischemic/reperfused hearts. Samples were immediately stored in liquid nitrogen. The free radical content of DMPO-supplemented from TRO40303-treated and control effluents was determined by ESR in glass capillaries. The ESR signal was acquired 1.5 min after thawing of the sample using the same parameters as for ascorbate except: modulation amplitude 0.0313 mT, receiver gain 5 × 10^4 and sweep rate for each scan 0.167 mT/s.
Lipid peroxidation in heart tissue at the end of reperfusion was evaluated using the malondialdehyde-thiobarbituric acid assay (MDA-TBA) (n = 8/group) as previously described.

CC(C)CCC[C@@H](C)[C@H]1CC[C@H]2[C@@H]3CC/C(=N\O)[C@](C)(CCCO)[C@H]3CC[C@]12C [TRO40303, 3,5-seco-4-nor-cholestan-5-one oxime-3-ol]
reduction of infarct size [1]: 38%
solubility [2]: ~ 6 mg/mL
change in systemic arterial blood pressure (SAP) (Domestic Yorkshire pigs): not changed
decrease of DMPO-OH ESR signal intensity in coronary effluents (isolated rat heart; 25 mM DMPO at reperfusion, 3 min after onset of reflow, p < 0.05, n = 6): 69%
AFR-DMSO release in the coronary effluents versus untreated hearts (isolated rat heart; early reperfusion (1st min), p < 0.001, n = 6): –57%
tissue AFR-DMSO versus untreated hearts (isolated rat heart; end of reflow, p < 0.05, n = 6): +24%
MDA-TBA formation compared to vehicle-perfused hearts (isolated rat heart; heart tissue at end of reperfusion, p < 0.01, n = 8): –65%
